Test results from US20070219172A1, “Selective testicular 11beta-HSD inhibitors for the treatment of hypergonadism associated disorders and modulation of fertility” (The Miriam Hospital, priority 2005, published 2007).
“Also recorded” adds a separate entry of the source. Read-outs that look alike come from different tables or passages of the source.

Tests used:
11β-HSD1 Reductase [1] = biological target: T1, 11β-HSD1 Reductase (Rattus norvegicus, UniProt P16232); experiment: 11β-HSD1 reductase inhibition, testicular Leydig cell homogenates; format: biochemical; conditions: result in words
T1 construct: testicular leydig cell homogenates; from tissue; host or cells: testicular Leydig cell homogenates
T1 sequence (P16232 whole entry): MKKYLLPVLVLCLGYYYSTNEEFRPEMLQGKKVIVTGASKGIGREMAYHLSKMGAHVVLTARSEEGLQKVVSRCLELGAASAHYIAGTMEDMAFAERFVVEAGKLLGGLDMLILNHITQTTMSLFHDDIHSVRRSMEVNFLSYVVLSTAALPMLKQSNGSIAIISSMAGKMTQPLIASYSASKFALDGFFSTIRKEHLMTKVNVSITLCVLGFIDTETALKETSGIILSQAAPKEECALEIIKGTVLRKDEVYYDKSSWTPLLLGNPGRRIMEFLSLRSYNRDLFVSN

11β-HSD2 Dehydrogenase = biological target: T2, 11β-HSD2 Dehydrogenase (Ovis aries, UniProt P50168); experiment: 11β-HSD2 dehydrogenase inhibition, sheep kidney microsomes; format: biochemical; conditions: result in words
T2 construct: sheep kidney microsomes; from tissue; host or cells: sheep kidney microsomes
T2 sequence (P50168 1-427): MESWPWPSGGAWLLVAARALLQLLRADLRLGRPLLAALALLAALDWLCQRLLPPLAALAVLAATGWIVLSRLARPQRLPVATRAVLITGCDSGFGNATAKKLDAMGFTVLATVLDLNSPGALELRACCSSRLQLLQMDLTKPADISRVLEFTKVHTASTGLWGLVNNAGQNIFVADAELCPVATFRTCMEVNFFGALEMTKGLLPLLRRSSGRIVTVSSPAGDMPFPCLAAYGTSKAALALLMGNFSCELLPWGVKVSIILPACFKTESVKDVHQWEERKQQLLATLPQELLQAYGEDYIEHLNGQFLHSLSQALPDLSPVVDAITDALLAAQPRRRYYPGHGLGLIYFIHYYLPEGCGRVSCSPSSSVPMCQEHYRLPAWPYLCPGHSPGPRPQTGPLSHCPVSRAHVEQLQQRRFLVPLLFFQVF

11β-HSD1 Dehydrogenase = biological target: T3, 11β-HSD1 Dehydrogenase (Rattus norvegicus, UniProt P16232); experiment: 11β-HSD1 dehydrogenase inhibition, testicular Leydig cell homogenates; format: biochemical; conditions: result in words
T3 construct: testicular leydig cell homogenates; from tissue; host or cells: testicular Leydig cell homogenates
T3 sequence (P16232 whole entry): as the sequence (P16232 whole entry) above

rat aortic rings = experiment: Contractile response of rat aortic rings to phenylephrine; conditions: for amplification of the contractile response to phenylephrine by the steroid: rat aortic rings incubated with the steroid, versus controls
Protocol: Male Sprague-Dawley (150-200 g) rats were anesthetized with pentobarbital (50 mg/kg IP), and a median sternotomy was performed followed by the rapid removal of the thoracic aorta. The adventitia was removed, but the endothelium was left intact. The aorta was cut into 2-3 mm rings and individual rings were placed into a single well of a twenty four well culture plate and incubated at 37° C. under 95% O2-5% CO2. Each well contained 1 mL of DMEM/F12 containing 1% fetal bovine serum, streptomycin (100 μg/ml), penicillin (100 units/ml) and amphotericin (0.25 μg/ml). Aortic rings were incubated for 24 hours prior to contractility measurements with the following combinations of steroids, and antisense/nonsense oligonucleotides (3 μmol/L):
Antisense phosphorothioate oligonucleotides, targeted to block either 11β-HSD2 or 11β-HSD1 gene expression, were obtained from Research Genetics, Huntsville Ala. Antisense oligomers complementary to 20 bp sequences spanning the ribosome binding/translation start site were used. Oligomer sequences were: 5′-CATAACTGCCGTCCAACAGC-3′ (SEQ ID No.: 2) for 11β-HSD1 Antisense and 5′-AGCCCAGCGCTCCATGACTT-3′ (SEQ ID No. 3) for 111-HSD2 antisense. In control experiments the corresponding sense sequence was used as the nonsense oligomer. Antisense and nonsense oligomers were added directly to each well at 20 μg/10:1 sterile H20 per well for a final concentration of 3 μmol/L.
For contraction measurements, aortic rings were suspended by tungsten wires with 1 g of tension and placed in a vessel bath containing serum free DMEM/F12 media at 37° C. aerated with 95% O2-5% CO2, at pH 7.4. Vessels were equilibrated for 20 minutes and then tested with phenylephrine ([…]-10 μmol/L). […] The intensity of contraction was assessed by use of a Narishige micromanipulator and model FT03 force transducer (Grass Instrument Co. West Warwick, R.I.). Measurements were recorded on computer using the Labview 4.1 Virtual Instrument System (National Instruments, Austin, Tex.).

11β-HSD1 Reductase [2] = biological target: T1, 11β-HSD1 Reductase; experiment: Backward reaction of 11β-HSD1 reductase in rat Leydig cells; format: cell-based
Protocol: Similar experiments were performed with 3α,5β-deoxycorticosterone and 3α,5β progesterone, neither of which posess an 11β-hydroxy group.

[3] = tested on: 11β-HSD1-reductase activity in rat aortic rings; experiment: Conversion of 3H-11-dehydrocorticosterone to corticosterone by aortic rings; conditions: vascular tissue
Protocol: (ii) ^3H-11-dehydro-corticosterone (10 nmol/L)±11β-HSD1 antisense (3 μmol/L); this experiment was performed in duplicate (n=10 aortic rings per well). Control groups were incubated with the appropriate nonsense oligomer. ^3H-corticosterone in the incubation medium after 24 hrs was then measured. In this experiment, aortic rings were also analyzed for ^3H-corticosterone content. Rings from duplicate incubations (total n=20) were blotted dry, pooled and homogenized in 50% methanol using a Polytron. The homogenates were then centrifuged, extracted as below using Sep-Paks and injected onto a HPLC system for analysis.
Incubation media was collected, ran through a Sep-Pak and eluted with 3 mls of methanol, the eluate was then dried under nitrogen and reconstituted in 500:1 methanol. The aortic rings were dried and weighed. The steroids present in the eluate were separated by high-pressure liquid chromatography with a Dupont Zorbax C8 column eluted at 44° C. at a flow rate of 1 mL/min using 55% methanol for 10 minutes. Steroids were observed by monitoring radioactivity on-line with a Packard Radiomatic Flo-One/Beta Series A-500 counter connected to a Dell Optiflex 425 S/L computer. Corticosterone and 11-dehydro-corticosterone were identified by comparing their retention times with that of known standards.

[4] = whole cell preparations of rat Leydig cells

Row | Molecule | 11β-HSD1 Reductase inhibition (11β-HSD1 Reductase [1]) | 11β-HSD2 Dehydrogenase inhibition (11β-HSD2 Dehydrogenase) | 11β-HSD1 Dehydrogenase inhibition (11β-HSD1 Dehydrogenase) | further results
1 | C[C@]12CC[C@@H](O)C[C@@H]1CC[C@@H]1[C@@H]2[C@@H](O)C[C@]2(C)[C@@H](C(=O)CO)CC[C@@H]12 [3α,5α-reduced-corticosterone] | No Inhibition | Potent Inhibitor | Potent Inhibitor | increase in NADPH production (rat Leydig cells; [4]): three to five fold increase
2 | C[C@]12CC[C@@H](O)C[C@@H]1CC[C@@H]1[C@@H]2[C@@H](O)C[C@@]2(C)[C@@H]1CC[C@@H]2O [3α,5α-reduced-11β-OH-testosterone] | No Inhibition | Potent Inhibitor (Non-Selective) | Potent Inhibitor (Non-Selective) | –
3 | C[C@]12C[C@H](O)[C@H]3[C@@H](CCC4=CC(=O)CC[C@@]43C)[C@@H]1CC[C@@H]2C(=O)CO [corticosterone] | – | – | – | amplification of the contractile response to phenylephrine by the steroid (rat aortic rings): amplified contractile responses
4 | C[C@]12CC[C@@H](O)C[C@H]1CC[C@@H]1[C@@H]2CC[C@]2(C)[C@@H](C(=O)CO)CC[C@@H]12 [3α,5β-deoxycorticosterone, 3α,5β-terahydro-deoxycorticosterone] | – | – | potent inhibitors | effect on the backward reaction of 11β-HSD1 reductase (11β-HSD1 Reductase [2]): Neither of these compounds effected the backward reaction
5 | C[C@]12CCC(=O)C=C1CC[C@@H]1[C@@H]2C(=O)C[C@]2(C)C(=O)CC[C@@H]12 [11-Keto-androstenedione] | Selective Inhibitor | No Inhibition | No Inhibition | –
6 | CC(=O)[C@H]1CC[C@H]2[C@@H]3CC[C@@H]4C[C@H](O)CC[C@]4(C)[C@H]3CC[C@]12C [3α,5β progesterone, 3α,5β-tetrahydro-progesterone] | – | – | potent inhibitors | effect on the backward reaction of 11β-HSD1 reductase (11β-HSD1 Reductase [2]): Neither of these compounds effected the backward reaction
7 | C[C@]12CCC(=O)C[C@@H]1CC[C@@H]1[C@@H]2[C@@H](O)C[C@]2(C)[C@@H](C(=O)CO)CC[C@@H]12 [5α-dihydro-corticosterone] | No inhibition | Potent Inhibitor | Potent Inhibitor | –
8 | C[C@]12CC[C@@H](O)C[C@@H]1CC[C@@H]1[C@@H]2CC[C@]2(C)[C@@H](O)CC[C@@H]12 [3α5α TH-testosterone] | – | – | – | increase in NADPH production (rat Leydig cells): three to five fold increase
9 | C[C@]12CC(=O)[C@H]3[C@@H](CCC4=CC(=O)CC[C@@]43C)[C@@H]1CC[C@@H]2C(=O)CO [11-dehydro-corticosterone] | – | – | – | amplification of the contractile response to phenylephrine by the steroid (rat aortic rings): amplified
10 | C[C@]12CC[C@@H](O)C[C@@H]1CC[C@H]1[C@@H]3CC[C@H](C(=O)CO)[C@@]3(C)CC(=O)[C@@H]12 [3α,5α-tetrahydro-11-dehydro-corticosterone] | Potent Inhibitor | Potent Inhibitor | No Inhibition | –
11 | C[C@]12C[C@H](O)[C@H]3[C@@H](CCC4=CC(=O)CC[C@@]43C)[C@@H]1CC[C@@H]2O [11β-OH-testosterone] | No Inhibition | Inhibitor (Non-Selective) | Inhibitor (Non-Selective) | –
12 | CC(=O)[C@H]1CC[C@H]2[C@@H]3CCC4=CC(=O)CC[C@]4(C)[C@H]3[C@@H](O)C[C@]12C [11β-OH-progesterone] | No Inhibition | – | Potent Inhibitor (Non-Selective) | –
13 | C[C@@]12CC[C@@H]3[C@H]([C@@H](O)C[C@]4(C=O)[C@@H](C(=O)CO)CC[C@@H]34)[C@@]1(C)CC[C@@H](O)C2 [3α,5α-reduced aldosterone] | No Inhibition | Potent Inhibitor | Moderate Inhibitor | –
14 | C[C@]12CC[C@H](O)C[C@H]1CC[C@@H]1[C@@H]2[C@@H](O)C[C@]2(C)C(=O)CC[C@H]12 [3α,5α-reduced-11β-OH-androstenedione] | No Inhibition | Potent Inhibitor (Non-Selective) | Moderate Inhibitor | –
15 | C[C@]12CC[C@H](O)C[C@@H]1CC[C@H]1[C@@H]3CC[C@H](O)[C@@]3(C)CC(=O)[C@@H]12 [3α,5α-reduced-11-keto-testosterone] | Selective Inhibitor | – | No Inhibition | –
16 | C[C@]12CC[C@@H](O)C[C@@H]1CC[C@@H]1[C@@H]2C(=O)C[C@]2(C)C(=O)CC[C@@H]12 [3α,5α-reduced-11-keto-androstenedione] | Selective Inhibitor | – | No Inhibition | –
17 | C[C@H](CCC(=O)O)[C@H]1CC[C@H]2[C@@H]3[C@H](O)C[C@@H]4C[C@H](O)CC[C@]4(C)[C@H]3CC[C@]12C [chenodeoxycholic acid] | No Inhibition | No Inhibition | potent inhibitors; also recorded: Selective inhibitor | –
18 | CC(=O)[C@H]1CC[C@H]2[C@@H]3CCC4=CC(=O)CC[C@]4(C)[C@H]3C(=O)C[C@]12C [11-Keto-progesterone] | Selective Inhibitor | Potent Inhibitor | No Inhibition | ability of 11-dehydro-corticosterone to amplify the contractile response to phenylephrine (rat aortic rings; rat aortic rings, 24 h, 11-dehydro-corticosterone 100 nmol/L): diminished; metabolism of 11-dehydro-corticosterone back to corticosterone [3]: decreased
19 | 3α,5α-reduced-11-keto-progesterone | Selective Inhibitor | – | No Inhibition | –
20 | C[C@]12CC(=O)[C@H]3[C@@H](CCC4=CC(=O)CC[C@@]43C)[C@@H]1CC[C@@H]2O [11-Keto-testosterone] | Selective Inhibitor | No Inhibition | No Inhibition | –
21 | CC(=O)[C@H]1CC[C@H]2[C@@H]3CC[C@H]4C[C@@H](O)CC[C@]4(C)[C@H]3[C@@H](O)C[C@]12C [3α,5α-reduced-11β-OH-progesterone] | No Inhibition | Potent Inhibitor (Non-Selective) | Potent Inhibitor (Non-Selective) | increase in NADPH production (rat Leydig cells; [4]): three to five fold increase
